Assay results taken from PMC12526212, “Novel Isolongifolenone-Based Caprolactam Derivatives as Potential Anticancer Agents via the p53/mTOR/Autophagy Pathway” (Molecules, 2025).
Like-named read-outs stand apart in the source and are kept apart here.

Tests used:
MCF-7 xenograft = test: Zebrafish MCF-7 xenograft model; format: in vivo; details: 48 h, compared with PBS control; Dox 1.0 μM
From the text: Zebrafish have become a well-established model for both anticancer drug discovery and toxicity evaluation. This animal model affords several unique advantages, including rapid development, optical transparency, and genetic conservation with humans. These features make zebrafish particularly suitable for high-throughput in vivo screening and mechanistic studies in oncology research. Tumor burden in zebrafish xenografts is commonly quantified from Dil/DiI-labeled fluorescence area or integrated intensity, which correlates with cell number and treatment response. To assess the in vivo antitumor efficacy of compound E10, we established a zebrafish xenograft model. Briefly, CM-Dil-labeled MCF-7 cells (showing red fluorescence) were microinjected into the yolk sacs of zebrafish embryos. The xenografted zebrafish were then randomly assigned into five groups: three E10-treatment groups (0.5 µg/mL, 1.0 µg/mL, and 2.0 µg/mL), a Doxorubicin (Dox) positive control group, and a PBS negative control group.
All experimental procedures were approved by ACUC of Shandong Academy of Sciences (Animal Care and Use Committee). Wild-type AB of zebrafish were obtained from Biology Institute, Qilu University of Technology. The embryos were incubated in special embryonic medium (0.17 mM KCl, 5.0 mM NaCl, 0.4 mM CaCl2, and 0.16 mM MgSO4) at 28 °C. 48 h-old zebrafish embryos were microinjected with CM-Dil labelled MCF-7 cells under stereomicroscopy. After injection, zebrafish embryos with the same injection spot were randomly planted on a six-well plate. These xenograft zebrafish were sorted into four groups of about 15–20 zebrafish each and treated with 0.5, 1.0, 2.0 μg/mL of compound E10 for 48 h, 1.0 μM doxorubicin as a positive control group. After treatment, the fluorescence intensity of living cells was examined with laser confocal microscopy (Olympus, Tokyo, Japan).

HepG2 = test: CCK-8 antiproliferative assay, HepG2; format: cell-based; details: Homo sapiens, read-out: IC50 HepG2
Description: (§1) After synthesis and characterization, the isolongifolenone bicyclocaprolactam derivatives were evaluated for their in vitro antiproliferative activity against three cancer cell lines (MCF-7, HepG2, A549) using a CCK-8 assay. […] In general, the antiproliferative activities of most of these compounds were similar, irrespective of whether electron-withdrawing or electron-donating substituents were introduced in the phenoxy ring.
(§2) Three cancer cell lines (human breast adenocarcinoma cells MCF-7, human lung adenocarcinoma epithelial cells A549, and human hepatocellular carcinoma cells HepG2) were obtained from the Cell Bank of the Chinese Academy of Sciences (Shanghai, China). LO2 human normal liver cells were also purchased from STEM RECELL (Beijing, China, STM-CL-5770). The anti-proliferation activity of compounds was tested on three cancer cell lines. The cytotoxicity of compounds as tested on normal cell line (human normal liver cells LO2). Cells were seeded at a density of 5000 cells per well in 96-well plates. Natural product piperlongumine was used as the positive control. All experiments were performed in triplicate. Three cancer cell lines were cultured in High DMEM medium or RIPM 1640 containing 10% FBS (Sijiqing, Hangzhou, China) and 1% antibiotics at 37 °C in a 5% CO2 incubator. The experimental cells were seeded in a 96-well plate at 5000 cells per well and incubated for 24 h. The old medium was replaced with experimental medium, and the cells were cultured for 48 h. Afterward, 10 µL of CCK-8 solution was added to each well, and the cells were incubated for 3 h. The absorbance at 450 nm was measured using a microplate reader.

A549 = test: CCK-8 antiproliferative assay, A549; format: cell-based; details: Homo sapiens, read-out: IC50 A549
Description: as §1, §2

LO2 = test: CCK-8 cytotoxicity on normal cell line LO2; format: cell-based; details: Homo sapiens, L02; normal liver cells, CCK-8, 48 h, mean ± SD of three experiments
Description: as §2

MCF-7 = test: CCK-8 antiproliferative assay, MCF-7; format: cell-based; details: Homo sapiens, read-out: IC50 MCF-7
Description: as §1, §2

[1] = system: three cancer cell lines (MCF-7, HepG2, A549); test: CCK-8 antiproliferative assay, three cancer cell lines together; format: cell-based, human
Description: as §1, §2

[2] = HepG2, CCK-8, 48 h, mean ± SD of three experiments
[3] = A549, CCK-8, 48 h, mean ± SD of three experiments
[4] = MCF7, CCK-8, 48 h, mean ± SD of three experiments

Compound	fluorescence intensity of xenograft (MCF-7 xenograft)	IC50 (HepG2; [2])	IC50 (A549; [3])	IC50 (LO2)	IC50 (MCF-7; [4])	antiproliferative / anticancer activity [1]	IC50 (HepG2; HepG2, 48 h)	IC50 (A549; A549, 48 h)	IC50 (MCF-7; MCF7, 48 h)
COc1cccc2c1C(=O)c1c(O)c3c(c(O)c1C2=O)C[C@@](O)(C(=O)CO)C[C@@H]3O[C@H]1C[C@H](N)[C@H](O)[C@H](C)O1 [Dox, Doxorubicin, reference compound]	notable reduction in fluorescence intensity	–	–	–	–	–	–	–	–
CC1(C)C2=CC(=O)N(C(=O)C=Cc3ccc(F)cc3)CC(C)(C)C23CCC1C3 (stereo not drawn) [E1, 5,5,9,9-Tetramethyl-3-(3-(4-fluorophenyl)acryloyl)-4,5,6,7,8,9-hexahydro-5a,8-methanobenzo[d]azepin-2(3H)-one]	–	> 20 µM	11.7 ± 0.16 µM	> 20 µM	9.18 ± 0.11 µM	–	–	–	–
Cc1ccc(C=CC(=O)N2CC(C)(C)C34CCC(C3)C(C)(C)C4=CC2=O)cc1 (stereo not drawn) [E2, 5,5,9,9-Tetramethyl-3-(3-(4-tolyl)acryloyl)-4,5,6,7,8,9-hexahydro-5a,8-methanobenzo[d]azepin-2(3H)-one]	–	6.6 ± 0.07 µM	3.18 ± 0.16 µM	> 20 µM	1.29 ± 0.04 µM	–	–	–	–
CC1(C)C2=CC(=O)N(C(=O)C=Cc3ccc(Cl)cc3)CC(C)(C)C23CCC1C3 (stereo not drawn) [E3, 5,5,9,9-Tetramethyl-3-(3-(4-chlorophenyl)acryloyl)-4,5,6,7,8,9-hexahydro-5a,8-methanobenzo[d]azepin-2(3H)-one]	–	7.09 ± 0.33 µM	16.9 ± 0.27 µM	> 20 µM	18.97 ± 0.13 µM	–	–	–	–
CC1(C)C2=CC(=O)N(C(=O)C=Cc3ccc(C(F)(F)F)cc3)CC(C)(C)C23CCC1C3 (stereo not drawn) [E4, 5,5,9,9-Tetramethyl-3-(3-(4-(trifluoromethyl)phenyl)acryloyl)-4,5,6,7,8,9-hexahydro-5a,8-methanobenzo[d]azepin-2(3H)-one]	–	> 20 µM	14.98 ± 0.1 µM	> 20 µM	16.74 ± 0.16 µM	–	–	–	–
Cc1ccccc1C=CC(=O)N1CC(C)(C)C23CCC(C2)C(C)(C)C3=CC1=O (stereo not drawn) [E5, 5,5,9,9-Tetramethyl-3-(3-(2-tolyl)acryloyl)-4,5,6,7,8,9-hexahydro-5a,8-methanobenzo[d]azepin-2(3H)-one]	–	1.86 ± 0.09 µM	3.89 ± 0.44 µM	> 20 µM	2.86 ± 0.12 µM	–	–	–	–
CC1(C)C2=CC(=O)N(C(=O)C=Cc3cccc(F)c3)CC(C)(C)C23CCC1C3 (stereo not drawn) [E6, 5,5,9,9-Tetramethyl-3-(3-(3-fluorophenyl)acryloyl)-4,5,6,7,8,9-hexahydro-5a,8-methanobenzo[d]azepin-2(3H)-one]	–	5.96 ± 0.05 µM	5.34 ± 0.16 µM	> 20 µM	5.32 ± 0.11 µM	–	–	–	–
CC1(C)C2=CC(=O)N(C(=O)C=Cc3cccc(Cl)c3)CC(C)(C)C23CCC1C3 (stereo not drawn) [E7, 5,5,9,9-Tetramethyl-3-(3-(3-chlorophenyl)acryloyl)-4,5,6,7,8,9-hexahydro-5a,8-methanobenzo[d]azepin-2(3H)-one]	–	6.67 ± 0.06 µM	2.28 ± 0.1 µM	> 20 µM	2.67 ± 0.11 µM	–	–	–	–
COc1ccccc1C=CC(=O)N1CC(C)(C)C23CCC(C2)C(C)(C)C3=CC1=O (stereo not drawn) [E9, 5,5,9,9-Tetramethyl-3-(3-(2-methoxyphenyl)acryloyl)-4,5,6,7,8,9-hexahydro-5a,8-methanobenzo[d]azepin-2(3H)-one]	–	2.17 ± 0.24 µM	2.13 ± 0.16 µM	> 20 µM	2.22 ± 0.07 µM	–	–	–	–
CC1(C)C2=CC(=O)N(C(=O)C=Cc3ccccc3C(F)(F)F)CC(C)(C)C23CCC1C3 (stereo not drawn) [E11, 5,5,9,9-Tetramethyl-3-(3-(2-(trifluoromethyl)phenyl)acryloyl)-4,5,6,7,8,9-hexahydro-5a,8-methanobenzo[d]azepin-2(3H)-one]	–	4.53 ± 0.12 µM	18.3 ± 0.21 µM	> 20 µM	5.63 ± 0.3 µM	–	–	–	–
CC1(C)C2=CC(=O)N(C(=O)C=Cc3cccc(Br)c3)CC(C)(C)C23CCC1C3 (stereo not drawn) [E12, 5,5,9,9-Tetramethyl-3-(3-(3-bromophenyl)acryloyl)-4,5,6,7,8,9-hexahydro-5a,8-methanobenzo[d]azepin-2(3H)-one]	–	4.89 ± 0.52 µM	3.55 ± 0.04 µM	11.26 ± 0.06 µM	1.26 ± 0.19 µM	–	–	–	–
CC1(C)C2=CC(=O)N(C(=O)C=Cc3ccccc3Br)CC(C)(C)C23CCC1C3 (stereo not drawn) [E13, 5,5,9,9-Tetramethyl-3-(3-(2-bromophenyl)acryloyl)-4,5,6,7,8,9-hexahydro-5a,8-methanobenzo[d]azepin-2(3H)-one]	–	2.67 ± 0.16 µM	4.64 ± 0.06 µM	> 20 µM	2.12 ± 0.04 µM	–	–	–	–
CC1(C)C2=CC(=O)N(C(=O)C=Cc3ccc(Br)cc3)CC(C)(C)C23CCC1C3 (stereo not drawn) [E14, 5,5,9,9-Tetramethyl-3-(3-(4-bromophenyl)acryloyl)-4,5,6,7,8,9-hexahydro-5a,8-methanobenzo[d]azepin-2(3H)-one]	–	2.38 ± 0.16 µM	3.21 ± 0.16 µM	> 20 µM	1.27 ± 0.04 µM	–	–	–	–
CC1(C)C2=CC(=O)N(C(=O)C=Cc3ccccc3Cl)CC(C)(C)C23CCC1C3 (stereo not drawn) [E15, 5,5,9,9-Tetramethyl-3-(3-(2-chlorophenyl)acryloyl)-4,5,6,7,8,9-hexahydro-5a,8-methanobenzo[d]azepin-2(3H)-one]	–	2.09 ± 0.16 µM	3.47 ± 0.16 µM	> 20 µM	1.58 ± 0.16 µM	–	–	–	–
COc1ccc(C=CC(=O)N2CC(C)(C)C34CCC(C3)C(C)(C)C4=CC2=O)cc1 (stereo not drawn) [E16, 5,5,9,9-Tetramethyl-3-(3-(4-methoxyphenyl)acryloyl)-4,5,6,7,8,9-hexahydro-5a,8-methanobenzo[d]azepin-2(3H)-one]	–	2.44 ± 0.16 µM	5.28 ± 0.1 µM	> 20 µM	2.67 ± 0.18 µM	–	–	–	–
COc1ccc(C=CC(=O)N2CC(C)(C)C34CCC(C3)C(C)(C)C4=CC2=O)cc1OC (stereo not drawn) [E17, 5,5,9,9-Tetramethyl-3-(3-(3,4-dimethoxyphenyl)acryloyl)-4,5,6,7,8,9-hexahydro-5a,8-methanobenzo[d]azepin-2(3H)-one]	–	2.56 ± 0.16 µM	5.28 ± 0.08 µM	> 20 µM	2.16 ± 0.03 µM	good anticancer activity	–	–	–
CC1(C)C2=CC(=O)N(C(=O)C=Cc3cccnc3)CC(C)(C)C23CCC1C3 (stereo not drawn) [E18, 5,5,9,9-Tetramethyl-3-(3-(pyridin-3-yl)acryloyl)-4,5,6,7,8,9-hexahydro-5a,8-methanobenzo[d]azepin-2(3H)-one]	–	> 20 µM	> 20 µM	> 20 µM	> 20 µM	entirely lost	–	–	–
CC1(C)C2=CC(=O)N(C(=O)C=Cc3ccc(F)c(F)c3)CC(C)(C)C23CCC1C3 (stereo not drawn) [E19, 5,5,9,9-Tetramethyl-3-(3-(3,4-difluorophenyl)acryloyl)-4,5,6,7,8,9-hexahydro-5a,8-methanobenzo[d]azepin-2(3H)-one]	–	18.43 ± 0.16 µM	18.9 ± 0.16 µM	> 20 µM	17.07 ± 0.06 µM	good anticancer activity	–	–	–
COc1cc(/C=C/C(=O)N2CCC=CC2=O)cc(OC)c1OC [PL, Piperlongumine, reference compound]	–	–	–	–	–	–	3.46 ± 0.25 µM	5.83 ± 0.26 µM	2.79 ± 0.43 µM
